System: NCI-H23 complex spheroids with HUVEC/MSC, viability
Experiment: Anticancer human tumor NCI-H23 cell line growth inhibition [RAS];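 note: spheroids exposed to compound for 7 days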;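 for viability, T/C: 100% = DMSO vehicle control viability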
Conditions: for IC50: curve of first compound; for viability, T/C: stronger effect = lower value
Source text: RAS pathway inhibitors in Combinations in Complex Spheroids
A high-throughput screen of multi-cell type tumor spheroids was designed to identify active combinations of RAS pathway inhibitors and targeted small molecules. Complex spheroids include a stromal component modeled by human endothelial cells (HUVEC) and fibroblasts modeled by human mesenchymal stem cells (MSCs). The concentration ranges selected for each drug and investigational agent were based upon clinically achievable concentrations if the clinical Cmax of the agent was known.
Compounds. The drugs and investigational agents: abemaciclib (NSC768073), cobimetinib (NSC768068), divarasib (GDC6063, NSC841802), docetaxel (NSC628503), GDC-1971 (RLY-1971, NSC841576), gemcitabine (NSC613327), inavolisib (NSC800729), ipatasertib (NSC767898), KB-0742 (NSC834161), MRTX-1133 (NSC836407), osimertinib (NSC779217), RMC-4630 (NSC839698), RMC-6236 (NSC851965), RMC-6291 (NSC852671), Ro-3306 (NSC812927), sapanisertib (NSC764658), SN-38 (NSC673596), staurosporine (NSC755774), SY5609 (NSC837396), and tovorafenib (DAY101, NSC766906), were obtained from the National Cancer Institute (NCI) Developmental Therapeutics Program Chemical Repository. The FDA-approved anticancer drug set is available from the NCI Developmental Therapeutics Program. […] The stock solutions were prepared in dimethyl sulfoxide (DMSO, Sigma-Aldrich, St. Louis, MO, cat. D2650) at 800-fold the tested concentration and stored at -70 degrees C prior to their use. All drugs and investigational agents were tested over a range starting from a high concentration at or near the clinical Cmax and decreasing in half-log increments. If the clinical Cmax for an agent had not been determined, the highest concentration tested was 10 microM.
Cell Culture. All cells were maintained in an incubator at 37 degrees C and 5% CO2 with 95% humidity. The PDC lines were cultured according to standard operating procedures established by the NCI PDMR. All PDCs were thawed and cultured in Matrigel-coated flasks prepared with a working solution of 1X Ham's F-12 nutrient mix, without supplementation (Invitrogen, Waltham, MA, cat. 11765054), 100 U/mL penicillin-streptomycin (Invitrogen, cat. 15140122), and 2.5% Matrigel (Corning Inc., Corning, NY, cat. 354248) for the first three passages. The 362531-283-R-J2-PDC and 782815-120-R-J1-PDC lines were cultured in 6C/Colon 1B media, which includes advanced DMEM/F-12 (Thermo Fisher Scientific, cat. 12634028), 10 mM HEPES (Thermo Fisher Scientific, cat. 15630080), 1X GlutaMAX supplement (Thermo Fisher Scientific, cat. 35050061), 0.1 mg/mL primocin (InvivoGen, San Diego, CA, cat. ant-pm-2), 10% defined fetal bovine serum, heat inactivated (HyClone Laboratories Inc., Logan, UT, cat. SH30070.03HI), 50% L-WRN conditioned media (ATCC, cat. CRL-3276), 1.25 mM N-Acetyl-L-cysteine (Sigma-Aldrich, cat. A9165), 10 mM nicotinamide (Sigma-Aldrich, cat. N0636), 1X B-27 supplement (Thermo Fisher Scientific, cat. 17504044), 1X N-2 supplement (Thermo Fisher Scientific, cat. 17502048), 50 ng/mL human EGF (Thermo Fisher Scientific, cat. PHG0311), and 10 microM Y-27632 dihydrochloride (Tocris Bioscience, cat. 1254). The K12877-001-R-J1-PDC line was cultured in 6I media, which includes all 6C/Colon 1B media plus 10 ng/mL human FGF-10 (PeproTech, cat. 100-26), 1 ng/mL human FGF-2 (PeproTech, cat. 100-18B), 1 µM prostaglandin E2 (Tocris Bioscience, cat. 2296), […] hydrocortisone (Sigma-Aldrich, cat. H4001), and […] bovine insulin (Sigma-Aldrich, cat. I6634). The K86415-001-R-J1-PDC line was cultured in 6D media, which includes all 6C/Colon 1B media components minus the L-WRN conditioned media. The 485176-168-R4-J1-PDC was cultured in PANC media, which includes all 6C/Colon 1B media plus 100 ng/mL human FGF-10 (PeproTech, cat. 100-26), 500 nM SB-431542 (Selleckchem, cat. S1067), and 10 nM gastrin (Tocris Bioscience, cat. 3006). […]

Which IC50 (second compound 0.0316 µM) does the source give for `CCN1CCN(Cc2ccc(Nc3ncc(F)c(-c4cc(F)c5nc(C)n(C(C)C)c5c4)n3)nc2)CC1` + C#Cc1c(F)ccc2cc(O)cc(-c3ncc4c(N5CC6CCC(C5)N6)nc(OCC56CCCN5CC(F)C6)nc4c3F)c12 here?
Its IC50 is > 1000 nM.

What about the IC50 (second compound 0.1 µM) of the same compound?
The IC50 was > 1000 nM.

What about the IC50 (second compound 0.316 µM) of the same compound?
Its IC50 is 89.5 nM.

What about the IC50 (second compound 1 µM) of the same compound?
Its IC50 is 56.2 nM.

What about the IC50 (second compound 3.16 µM) of the same compound?
The IC50 was 12.2 nM.

What about the IC50 (second compound 10 µM) of the same compound?
Its IC50 is < 3.16 nM.

What about the viability, T/C (second compound 0.0316 µM, first compound 0.00316 µM) of the same compound?
Its viability, T/C is 105%.

What about the viability, T/C (second compound 0.0316 µM, first compound 0.01 µM) of the same compound?
The viability, T/C was 102%.

And the viability, T/C (second compound 0.0316 µM, first compound 0.0316 µM)?
The viability, T/C was 79%.

What about the viability, T/C (second compound 0.0316 µM, first compound 0.1 µM) of the same compound?
The viability, T/C was 61.8%.

And the viability, T/C (second compound 0.0316 µM, first compound 0.316 µM)?
The viability, T/C was 61.2%.

What about the viability, T/C (second compound 0.0316 µM, first compound 1 µM) of the same compound?
Its viability, T/C is 60.9%.

What about the viability, T/C (second compound 0.1 µM, first compound 0.00316 µM) of the same compound?
Its viability, T/C is 104%.

And the viability, T/C (second compound 0.1 µM, first compound 0.01 µM)?
Its viability, T/C is 108%.

And the viability, T/C (second compound 0.1 µM, first compound 0.0316 µM)?
Its viability, T/C is 70%.

What about the viability, T/C (second compound 0.1 µM, first compound 0.1 µM) of the same compound?
Its viability, T/C is 56.8%.

And the viability, T/C (second compound 0.1 µM, first compound 0.316 µM)?
The viability, T/C was 50.9%.

What about the viability, T/C (second compound 0.1 µM, first compound 1 µM) of the same compound?
Its viability, T/C is 52.2%.

What about the viability, T/C (second compound 0.316 µM, first compound 0.00316 µM) of the same compound?
The viability, T/C was 94.2%.

And the viability, T/C (second compound 0.316 µM, first compound 0.01 µM)?
The viability, T/C was 109%.

What about the viability, T/C (second compound 0.316 µM, first compound 0.0316 µM) of the same compound?
Its viability, T/C is 71.8%.

What about the viability, T/C (second compound 0.316 µM, first compound 0.1 µM) of the same compound?
The viability, T/C was 51.4%.

And the viability, T/C (second compound 0.316 µM, first compound 0.316 µM)?
The viability, T/C was 48.4%.

What about the viability, T/C (second compound 0.316 µM, first compound 1 µM) of the same compound?
Its viability, T/C is 43.3%.

And the viability, T/C (second compound 1 µM, first compound 0.00316 µM)?
Its viability, T/C is 81.2%.

What about the viability, T/C (second compound 1 µM, first compound 0.01 µM) of the same compound?
Its viability, T/C is 75%.

And the viability, T/C (second compound 1 µM, first compound 0.0316 µM)?
Its viability, T/C is 56.6%.

What about the viability, T/C (second compound 1 µM, first compound 0.1 µM) of the same compound?
The viability, T/C was 42.6%.

What about the viability, T/C (second compound 1 µM, first compound 0.316 µM) of the same compound?
Its viability, T/C is 40.4%.

What about the viability, T/C (second compound 1 µM, first compound 1 µM) of the same compound?
The viability, T/C was 34.7%.

What about the viability, T/C (second compound 3.16 µM, first compound 0.00316 µM) of the same compound?
Its viability, T/C is 54.5%.

What about the viability, T/C (second compound 3.16 µM, first compound 0.01 µM) of the same compound?
Its viability, T/C is 53.3%.

What about the viability, T/C (second compound 3.16 µM, first compound 0.0316 µM) of the same compound?
Its viability, T/C is 37.9%.

What about the viability, T/C (second compound 3.16 µM, first compound 0.1 µM) of the same compound?
The viability, T/C was 29%.

And the viability, T/C (second compound 3.16 µM, first compound 0.316 µM)?
Its viability, T/C is 30%.

What about the viability, T/C (second compound 3.16 µM, first compound 1 µM) of the same compound?
Its viability, T/C is 22.8%.

What about the viability, T/C (second compound 10 µM, first compound 0.00316 µM) of the same compound?
Its viability, T/C is 30.3%.

And the viability, T/C (second compound 10 µM, first compound 0.01 µM)?
The viability, T/C was 39.5%.

What about the viability, T/C (second compound 10 µM, first compound 0.0316 µM) of the same compound?
Its viability, T/C is 26.5%.

And the viability, T/C (second compound 10 µM, first compound 0.1 µM)?
Its viability, T/C is 21.1%.

And the viability, T/C (second compound 10 µM, first compound 0.316 µM)?
The viability, T/C was 22.2%.

And the viability, T/C (second compound 10 µM, first compound 1 µM)?
Its viability, T/C is 21%.
